Results as given in article PMC10974743, “Design, Synthesis, and Biological Evaluation of Novel Phenoxy Acetic Acid Derivatives as Selective COX-2 Inhibitors Coupled with Comprehensive Bio-Pharmacological Inquiry, Histopathological Profiling, and Toxicological Scrutiny” (Molecules, 2024).
“Also recorded” adds a separate entry of the source. Marks after values point to notes of the source that are not given here.

Tests used:
gastric mucosa = assay: Evaluation of ulcerogenic effects (macroscopic scores and gastric histopathology)
Description: The assessment of ulcerogenic effects was conducted following established procedures [42, 57]
Following the experimental period, the animals were euthanized using pentobarbital sodium (100 mg/kg), and blood was collected via jugular vein exsanguination for later evaluation of liver and kidney function, and subsequently sacrificed by cervical dislocation. […] Following this, the animals' stomachs were removed, inflated, and opened along the greater curvature to evaluate ulcerogenic effects.
B: Ulcer lesion severity scoring system
2.5 More than 10 small ulcers
3 1 marked ulcer plus 0 to 4 small ulcers
3.5 1 marked ulcer plus 5 or more small ulcers
4 2 marked ulcers plus 0 to 4 small ulcers
4.5 2 marked ulcers plus 5 or more small ulcers
5 3 or more marked ulcers
The statistical analysis of the data was conducted using GraphPad Prism 9.5.1 Demo
(GraphPad Software, San Diego, CA). One -way analysis of variance (ANOVA) was utilized to
evaluate differences among the various groups, except for paw edema volume, which un derwent
analysis using two -way ANOVA. Post -hoc analysis was performed using Tukey's multiple
significance set at P < 0.05

[1] = test system: nociceptive responses on hot plate; assay: Hot plate latency test (analgesic activity); assay type: in vivo, rats; conditions: for Hot plate latency period: plate 50 °C, mean ± SD, n = 6
Description: The hot plate latency test was performed according to the following procedures (Supplementary Materials, page 54). […]
In summary, thirty rats
The normal control group received 1% CMC, while the remaining groups were administered their respective reference or test compounds. Each rat was gently positioned on a heated plate set at 50 ◦C. The latency period for nociceptive responses, such as paw licking or jumping off the hot plate, was recorded at 30-, 60-, 90-, and 120 minutes post-administration of the reference drugs, test […]

COX-2 = conditions: cited from earlier work
TNF-α = TNF-α content of paw exudate by ELISA, carrageenan paw edema model; assay type: in vivo, Sprague Dawley rats; conditions: vs carrageenan group
Description: (§1) ELISA assessment assays were conducted as cited (Supplementary Materials, page 53).
(§2) In-vivo anti-inflammatory activity […]
(§3) cervical dislocation. […] The percentage
(§4) Weight of the left paw] ×100.
(§5) Assessment of inflammatory biomarkers using ELISA […]
(§6) content, using enzyme -linked immunosorbent assay (ELISA). The ELISA kits were purchased from CLOUD -CLONE CORP (CCC, USA) (Cat# SEA133Ra) and MyBioSource company (British Columbia, Canada) (Cat# MBS730592) respectively, and the assays were performed following the manufacturer' s instructions. Additionally, the protein content of the exudates was determined using the Bradford method.

[2] = test system: paw tissue, carrageenan paw edema model; assay: Histopathological examination of paws, inflammatory cell infiltration score; assay type: in vivo, rats
Description: The histopathological assessments were performed according to the following procedures (Supplementary Materials, page 54). […]
Histopathological examination
Thirty-six rats were separated into six groups of six rats each for histological assessment […]
groupings consisted of a control group, a carrageenan group, two groups for the reference drugs […]
protocols that were utilized in the in-vivo anti-inflammatory activity test were used. After a duration of 5 hours, the animals were euthanized, and their left paws were amputated. The paws were preserved in 10% neutral buffered formalin, trimmed, washed, dehydrated in increasing concentrations of ethyl alcohol, clarified in xylene, and ultimately embedded in paraffin. They were then sliced into 4-6µ thick slices, stained with Hematoxylin and Eosin, and examined under a light microscope. A scoring system was used to evaluate the degree of inflammation, dividing it into six categories ranging from 0 indicating no inflammation to 5 indicating severe inflammation.
Each score corresponded to a certain level of inflammation: 0 for no inflammation, 1 for mild inflammation, 2 for mild to moderate inflammation, 3 for moderate inflammation, 4 for moderate to severe inflammation, and 5 for severe inflammation.

human COX-2 = molecular target: T1, human COX-2 (Homo sapiens, UniProt P35354); assay: In vitro COX-2 inhibition assay (Cayman colorimetric COX inhibitor screening kit)
T1 sequence (P35354 18-604): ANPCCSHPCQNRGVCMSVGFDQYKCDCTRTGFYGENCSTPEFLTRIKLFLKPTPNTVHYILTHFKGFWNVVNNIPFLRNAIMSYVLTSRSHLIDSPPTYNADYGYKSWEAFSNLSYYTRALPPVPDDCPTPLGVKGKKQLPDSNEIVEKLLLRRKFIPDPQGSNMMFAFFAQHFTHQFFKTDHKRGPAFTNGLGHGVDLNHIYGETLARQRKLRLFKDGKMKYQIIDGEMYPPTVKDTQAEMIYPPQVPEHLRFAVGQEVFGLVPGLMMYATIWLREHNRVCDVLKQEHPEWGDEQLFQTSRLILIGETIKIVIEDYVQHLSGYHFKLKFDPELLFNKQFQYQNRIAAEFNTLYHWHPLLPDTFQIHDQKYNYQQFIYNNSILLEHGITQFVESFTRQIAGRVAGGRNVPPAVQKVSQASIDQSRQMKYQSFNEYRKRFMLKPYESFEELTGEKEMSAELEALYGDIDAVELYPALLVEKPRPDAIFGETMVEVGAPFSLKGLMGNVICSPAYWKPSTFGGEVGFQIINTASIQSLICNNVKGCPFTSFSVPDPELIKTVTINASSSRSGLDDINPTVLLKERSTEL
Description: (§7) The in vitro enzyme assays were performed at the Biochemistry Department, Cairo
(§8) General Hospital, Egypt. Cayman® colorimetric COX (ovine) inhibitor screening assay kit (Item
(§9) enzymes in presence of all newly compounds. Generally, this kit is dependent on the reductive
(§10) reaction of COX. A specific antibody binds to PGH2 produced by COX and is further quantified
(§11) by the ELISA technique as previously reported. After that, the selectivity index (SI) was calculated
as the following equation:
𝐒𝐞𝐥𝐞𝐜𝐭𝐢𝐯𝐢𝐭𝐲 𝐢𝐧𝐝𝐞𝐱 (𝐒𝐈) = 𝐈𝐂₅₀𝐨𝐟 𝐂𝐎𝐗 − 𝟏

[3] = test system: carrageenan-induced paw edema; assay: Carrageenan paw edema test (paw thickness, paw weight); conditions: for Paw thickness difference: oral; for Percentage of inhibition of paw thickness: vs carrageenan group
Description: The carrageenan paw edema test was conducted following established procedures as detailed (Supplementary Materials, page 53).
The carrageenan paw edema test was conducted following established procedures. In summary, seventy-two rats were randomly assigned to twelve groups, each comprising six rats.
These groups included normal controls, carrageenan controls (both receiving the vehicle; 1%
Acute inflammation was induced in the right hind paws of all rats one hour after oral administration of the respective compounds or vehicle. This was achieved by injecting a freshly prepared 0.1 mL carrageenan suspension (1% in normal saline) subplantarly into the right hind paw, except for the normal control group, which received a saline injection. Paw thickness was measured hourly (Ct) until the fifth hour (C5) post-carrageenan injection (C0). The hourly increase in paw thickness (paw thickness difference) was calculated by subtracting the initial measurement (C0) from the thickness at each hour (Ct), and the results were presented as the mean increase in paw thickness (mm). To evaluate anti-inflammatory effects, the percentage of inhibition for each standard and test compound was determined using the formula: percentage of inhibition (%) = [(Paw thickness difference of carrageenan group - Paw thickness difference of treated)/ Paw thickness difference of carrageenan group] × 100. […] The paws were then excised and weighed (both left and right). The percentage of weight increase between the left and right paws of each animal was calculated using the equation: Percentage of weight increase = [(Weight of the right paw - Weight of the left paw) / Weight of the left paw] ×100.

[4] = Assessment of liver and kidney function (serum ALT, AST, creatinine, urea); assay type: in vivo, rats; parameters: Urea: unit not given here; conditions: mean ± SD
Description: These assessments were conducted following the manufacturer’s instructions (Supplementary Materials, page 55).
In-vivo anti-inflammatory activity
as §3, §4
Assessment of inflammatory biomarkers using ELISA

ovine COX-1 = molecular target: T2, ovine COX-1 (Ovis aries, UniProt P05979); assay: In vitro COX-1 inhibition assay (Cayman colorimetric COX inhibitor screening kit)
T2 sequence (P05979 25-600): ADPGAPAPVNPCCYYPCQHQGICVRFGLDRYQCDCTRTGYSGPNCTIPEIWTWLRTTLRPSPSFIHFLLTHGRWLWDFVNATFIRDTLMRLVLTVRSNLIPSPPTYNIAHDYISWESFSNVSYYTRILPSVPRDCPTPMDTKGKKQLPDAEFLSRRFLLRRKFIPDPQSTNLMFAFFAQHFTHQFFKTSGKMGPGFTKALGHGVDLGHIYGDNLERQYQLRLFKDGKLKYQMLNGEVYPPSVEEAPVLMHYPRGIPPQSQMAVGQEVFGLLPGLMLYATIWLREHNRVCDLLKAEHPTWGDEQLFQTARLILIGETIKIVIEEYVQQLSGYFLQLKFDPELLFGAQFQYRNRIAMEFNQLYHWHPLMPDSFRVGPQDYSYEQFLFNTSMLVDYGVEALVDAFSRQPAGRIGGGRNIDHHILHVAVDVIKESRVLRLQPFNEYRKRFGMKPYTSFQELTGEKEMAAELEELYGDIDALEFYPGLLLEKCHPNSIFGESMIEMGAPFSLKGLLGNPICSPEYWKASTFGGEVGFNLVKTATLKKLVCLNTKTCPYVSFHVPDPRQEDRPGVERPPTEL
Description: as §7, §8, §9, §10, §11
as the following equation:
𝐒𝐞𝐥𝐞𝐜𝐭𝐢𝐯𝐢𝐭𝐲 𝐢𝐧𝐝𝐞𝐱 (𝐒𝐈) = 𝐈𝐂₅₀𝐨𝐟 𝐂𝐎𝐗 − 𝟏

PGE2 = PGE2 content of paw exudate by ELISA, carrageenan paw edema model; assay type: in vivo, Sprague Dawley rats; conditions: vs carrageenan group
Description: as §1, §2, §3, §4, §5, §6

[5] = compared to the normal control group

SI (COX-2 selectivity index) (human COX-2; COX-1 (IC50)/COX-2 (IC50)): 15.10
IC50 (human COX-2; COX-2 IC50, mean ± SEM, n = 3): 1.98 ± 0.02 µM
IC50 (ovine COX-1): 29.9 ± 0.09 µM
SMILES: Cc1cccc(Nc2ccccc2C(=O)O)c1C [Mefenamic acid, mefenamic acid, reference compound]
Gastric mucosa histopathological finding (gastric mucosa; H&E staining): ulcer formation with desquamation of gastric mucosal epithelium; also recorded: ulcer development and desquamation of the stomach mucosal epithelium
Increase in ulcer number (gastric mucosa; [5]): 233.33%
Increase in ulcer severity score (gastric mucosa; [5]): 366.67%
Ulcer Number Score (gastric mucosa; mean ± SD, n = 6): 1.67 ± 0.82 ^a
Ulcer Severity Score (gastric mucosa; mean ± SD, n = 6, scale 0 to 5): 1.17 ± 0.61 ^a
Hot plate latency period ([1]; 30 min post-administration): 9.95 ± 0.35 ^ab
Increase in latency period ([1]; 60 min mark): 58.38%
Hot plate latency period ([1]; 60 min post-administration): 11.58 ± 0.25 ^ab
Hot plate latency period ([1]; 90 min post-administration): 12.83 ± 0.36 ^ab
Hot plate latency period ([1]; 120 min post-administration): 13.73 ± 0.42 ^a
IC50 (COX-2): 5.3 µM
Reduction of TNF-α exudate content (TNF-α): 60.09%
Paw histopathological finding ([2]; H&E staining, carrageenan paw edema): infiltration of dermis by high number of inflammatory cells mainly lymphocytes and eosinophils; also recorded: significant cutaneous infiltration by inflammatory cells
Reduction in inflammatory cell infiltration score ([2]; vs carrageenan group, paw, 5 hours): 37.04%
Paw thickness difference ([3]; 1st h after carrageenan, mean ± SD, n = 6): 1.22 ± 0.19 mm
Percentage of inhibition of paw thickness ([3]; 1st h): 38.43%
Paw thickness difference ([3]; 2nd h after carrageenan, mean ± SD, n = 6): 2.27 ± 0.11 mm
Percentage of inhibition of paw thickness ([3]; 2nd h): 31.22%
Paw thickness difference ([3]; 3rd h after carrageenan, mean ± SD, n = 6): 2.86 ± 0.11 mm
Percentage of inhibition of paw thickness ([3]; 3rd h): 32.37%
Paw thickness difference ([3]; 4th h after carrageenan, mean ± SD, n = 6): 3.22 ± 0.19 mm
Percentage of inhibition of paw thickness ([3]; 4th h): 36.16%
Paw thickness difference ([3]; 5th h after carrageenan, mean ± SD, n = 6): 3.51 ± 0.07 mm
Percentage of inhibition of paw thickness ([3]; 5th h): 33.89%
Paw Weight Increase ([3]; right vs left paw, after 5 h, mean ± SD, n = 6): 34.08 ± 2.27 ^ab %
ALT ([4]; n = 6): 88.84 ± 6.09 IU/L
AST ([4]; n = 6): 97.51 ± 8.08 IU/L
AST/ALT ([4]; n = 6): 1.10 ± 0.15
Urea ([4]; n = 6): 27.58 ± 2.08
Creatinine ([4]; n = 6, in mg/dL (unit assumed)): 0.72 ± 0.05
Reduction of PGE2 exudate content (PGE2): 59.37%
